One assay concerns the target T1, 5-HT1A receptor (Homo sapiens, UniProt P08908).
T1 construct: gene HTR1A
T1 sequence (P08908 1-422): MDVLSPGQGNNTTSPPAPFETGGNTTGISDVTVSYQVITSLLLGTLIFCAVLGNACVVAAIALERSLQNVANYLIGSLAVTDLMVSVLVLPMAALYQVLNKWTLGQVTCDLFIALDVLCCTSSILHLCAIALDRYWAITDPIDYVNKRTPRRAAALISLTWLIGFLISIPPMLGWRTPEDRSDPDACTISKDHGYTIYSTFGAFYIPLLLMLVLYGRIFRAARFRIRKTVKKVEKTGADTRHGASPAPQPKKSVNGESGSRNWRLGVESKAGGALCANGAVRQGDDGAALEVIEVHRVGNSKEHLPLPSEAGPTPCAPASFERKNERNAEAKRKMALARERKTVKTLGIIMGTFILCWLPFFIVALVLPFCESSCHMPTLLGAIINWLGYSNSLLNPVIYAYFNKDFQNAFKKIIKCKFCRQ
The experiment in a line: radioligand displacement of [3H]-8-hydroxy-DPAT on membranes; supported by PathHunter β-arrestin PAM assay in CHO-K1 cells with human 5-HT1A. Type of assay: binding. The conditions noted are these: read-out: % inhibition at 10 μM; 20% at 1 μM %. (In general: In a radioligand displacement assay an active substance lowers the binding of a labelled ligand.)

Another assay has as its target T2, CB2 receptor (Homo sapiens, UniProt P34972).
T2 construct: gene CNR2
The experiment in a line: radioligand displacement of [3H]-CP55940 on membranes. To be noted: read-out: % inhibition at 10 μM; none at 1 μM %. The assay is classed as binding.

T2 sequence (P34972 whole entry): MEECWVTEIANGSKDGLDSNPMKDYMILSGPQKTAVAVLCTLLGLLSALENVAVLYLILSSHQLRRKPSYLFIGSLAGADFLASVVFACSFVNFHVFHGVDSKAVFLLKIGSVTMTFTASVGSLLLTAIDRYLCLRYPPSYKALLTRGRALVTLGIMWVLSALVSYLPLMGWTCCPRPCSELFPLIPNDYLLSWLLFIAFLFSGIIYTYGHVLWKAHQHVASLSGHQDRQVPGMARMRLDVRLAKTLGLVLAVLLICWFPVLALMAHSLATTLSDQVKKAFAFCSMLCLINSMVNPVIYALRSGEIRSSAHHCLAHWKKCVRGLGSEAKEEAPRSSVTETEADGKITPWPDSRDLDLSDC

Consider `CCCCCc1cc(O)c2c(c1)OC1(C)CCC3C1C2C3(C)C` (racemic) [(±)-CBL], for which the figures for the inhibition at 10 µM on 5-HT1A receptor and at CB2 receptor were 75% and 68%, respectively.

What is called inhibition is the drop in the measured response relative to a control, in per cent.

These data come from publication PMC11774245 (Journal of Natural Products, 2025).
